{"source": "patent US6465168B1", "about": "“Methods and apparatus for the inactivation of viruses” (priority 1992, dated 2002)", "key": {"murine-C retrovirus": {"test_system": "murine-C retrovirus", "experiment": "Critical fluid viral inactivation of murine-C retrovirus in serum, polybrene enhanced titer on NIH3T3 cells", "assay_type": "cell-based", "text": "(§1) In its normal operating mode, valves PV-4 and PV-5 are opened and an aliquot of test solution is aseptically introduced through the 3-way valve PV-4 using a sterile syringe and a presterilized loading tube. The 3-way valve PV-4 is then turned so that the critical fluid recycle line communicates with the soaking chamber, and the vent valve PV-5 is closed. PV-1 is then opened, supplying the solvent to the compressor P-1. The compressor is turned on and immediately thereafter valves PV-2 and PV-3 are opened, introducing the critical fluid solvent into the high pressure circulation loop. When operating pressure is attained, the compressor is turned off and valve PV-3 is closed.\n(§2) After system stabilization, the circulation pump P-2 is turned on and its speed adjusted, typically to 75% of maximum speed or 6,750 rpm. P-2 draws both the proteinaceous product from the bottom of the soaking chamber and the critical fluid phase from the top of the same unit. The mixture is then pumped counter-clockwise, mixed by static in-line mixer and returned to the soaking chamber. After mixing for a defined residence time, P-2 is turned off. The decompression valve PV-7 is then fully opened to depressurize the soaking chamber and the high pressure circulation loop. The rate of decompression was approximately 500 psig per second when PV-7 is a ¼″ ball valve. By using a back-pressure regulator instead of a ¼″ ball valve as the decompression valve PV-7, the rate of decompression can be controlled. In some experiments, the rate of decompression was controlled to approximately 2,000 psig per minute.\n(§3) In the examples described herein, samples of a recombinant murine C-type retrovirus were prepared as follows. […] Clonal cell lines stably expressing the transfected DNA were derived and maintained as virus-producing stocks. By packaging the RNA produced by the transfected DNA into the defective particles, these cells produce infectious particles that are entirely normal with respect to overall structure, stability, and mode of infection, but containing the plasmid-derived rather that the wild type, genetic material (Mann et al., Ibid).\n(§4) Because the LNCX sequences contain the antibiotic resistance gene neo and a suitable promoter, infection of cells with the recombinant retrovirus confers upon the cells resistance to the antibiotic Geneticin (G418). Conferral of Geneticin-resistance onto cells and their progeny was therefore used as the property by which virus titers were determined. Specifically, virus stocks were prepared by culturing the virus-producing cells at high density (50% confluence) in fresh culture medium (Dulebecco's modified Eagle's medium supplemented with 10% iron-supplemented calf serum [Hyclone, Inc., Logan, UT], glutamine [1 mM], penicillin [100 U/ml] and streptomycin [100 μg/ml] for 18 hours at 37 C. in a humidified 5% CO2 atmosphere. Culture medium was harvested and passed through a 0.2 micron filter, divided into aliquots, quick frozen using a dry-ice/ethanol bath and stored at −80° C. Immediately before use, samples were warmed in a 37 C. water bath until just thawed and held on ice. Aliquots of a single virus preparation were used for the examples described below.\n(§5) After virus-containing samples were mixed with other materials and treated as described in each of the examples, they were returned to ice, and assayed within 8 hours. Titer tests were performed by seeding 35 mm-style culture dishes with a mouse fibroblast line (NIH3T3 cells) in 3 ml of the culture medium described above at a density of 10,000 cells per well the evening before the assay was to be performed. Virus samples were added to the culture medium over the cells at various dilution from 10^0 (undiluted) to 10^−6."}, "murine C-type retrovirus": {"test_system": "murine C-type retrovirus", "assay_type": "cell-based", "conditions": "culture medium; for Titer: control 5,000; for effectiveness in inactivating the retrovirus: supercritical fluid, approximately 3,000 psig and 40° C.", "text": "as §1, §2, §3, §4, §5"}, "[1]": {"conditions": "runs CFI-28 to CFI-30: 3,000 psig, 41 C., 30 mins, serum"}, "[2]": {"conditions": "runs CFI-28 to CFI-30: 3,000 psig, 41 C., 30 mins, serum, polybrene, control 65,000"}, "[3]": {"conditions": "runs CFI-33 (Fr-22), CFI-35 (N2): 3,000 psig, 41 C., 60 mins, serum"}, "[4]": {"conditions": "runs CFI-33 (Fr-22), CFI-35 (N2): 3,000 psig, 41 C., 60 mins, serum, control 20,000, 5 = detection limit"}, "[5]": {"conditions": "run CFI-21: 3,250 psig, 41 C., 30 mins"}, "[6]": {"conditions": "run CFI-18: 2,560 psig, 43 C., 30 mins"}, "[7]": {"conditions": "run CFI-19: 2,690 psig, 41 C., 5 mins"}}, "note": "Where two headings read alike, the source gives them in different places. Marks after values point to notes of the source that are not given here."}
{"smiles": "CCC", "note": "[C3H8, propane]", "values": [{"measurement": "- log10 Reduction", "setting": "murine-C retrovirus; [1]", "value": 1.4}, {"measurement": "Titer", "setting": "murine-C retrovirus; [2]", "value": "2,500 cfu/2.3 ml"}]}
{"smiles": "FC(F)Cl", "note": "[Fr-22, chlorodifluoromethane]", "values": [{"measurement": "reduction of viral activity", "setting": "murine-C retrovirus; after 30 minutes of contacting the serum, approximately 3,000 psig and 40° C.", "value": "~3.2 log orders of magnitude"}, {"measurement": "time to eliminate viral activity, within the detection limits of the assay", "setting": "murine-C retrovirus; approximately 3,000 psig and 40° C., serum", "value": "within five minutes"}, {"measurement": "- log10 Reduction", "setting": "murine-C retrovirus; run CFI-31: 3,000 psig, 40 C., 5 mins, serum", "value": ">3.6"}, {"measurement": "Titer", "setting": "murine-C retrovirus; run CFI-31: 3,000 psig, 40 C., 5 mins, serum, control 20,000, 5 = detection limit", "value": "<5* cfu/2.0 ml"}, {"measurement": "- log10 Reduction", "setting": "murine-C retrovirus; run CFI-32: 3,000 psig, 40 C., 15 mins, serum", "value": 3.6}, {"measurement": "Titer", "setting": "murine-C retrovirus; run CFI-32: 3,000 psig, 40 C., 15 mins, serum, control 20,000", "value": 5, "unit": "cfu/2.0 ml"}, {"measurement": "- log10 Reduction", "setting": "murine-C retrovirus; [1]", "value": 3.2}, {"measurement": "Titer", "setting": "murine-C retrovirus; [2]", "value": 40, "unit": "cfu/2.3 ml"}, {"measurement": "- log10 Reduction", "setting": "murine-C retrovirus; [3]", "value": ">3.6"}, {"measurement": "Titer", "setting": "murine-C retrovirus; [4]", "value": "<5* cfu/2.0 ml"}]}
{"smiles": "N#N", "note": "[N2, nitrogen]", "values": [{"measurement": "- log10 Reduction", "setting": "murine-C retrovirus; [3]", "value": 0.7}, {"measurement": "Titer", "setting": "murine-C retrovirus; [4]", "value": "3,750 cfu/2.0 ml"}, {"measurement": "- log10 Reduction", "setting": "murine C-type retrovirus; [5]", "value": 0.2}, {"measurement": "Titer", "setting": "murine C-type retrovirus; [5]", "value": "3,000 cfu/2.3 ml"}, {"measurement": "effectiveness in inactivating the retrovirus", "setting": "murine C-type retrovirus", "value": "relatively ineffective"}]}
{"smiles": "[N-]=[N+]=O", "note": "[N2O, nitrous oxide]", "values": [{"measurement": "reduction of virus activity", "setting": "murine-C retrovirus; 3,000 psig and 40° C., residence time 30 minutes, serum (CFI-27)", "value": 1.4, "unit": "logs"}, {"measurement": "inactivation of the viral population, within the detection limits of the assay", "setting": "murine-C retrovirus; 5,000 psig and 40° C., residence time 30 minutes, serum (CFI-34)", "value": "inactivated the entire viral population"}, {"measurement": "- log10 Reduction", "setting": "murine-C retrovirus; run CFI-26: 3,000 psig, 60 C., 30 mins, serum", "value": ">4.1"}, {"measurement": "Titer", "setting": "murine-C retrovirus; run CFI-26: 3,000 psig, 60 C., 30 mins, serum, polybrene, 40 C. control 65,000, 5 = detection limit", "value": "<5* cfu/2.3 ml"}, {"measurement": "- log10 Reduction", "setting": "murine-C retrovirus; run CFI-27: 3,000 psig, 40 C., 30 mins, serum", "value": 1.4}, {"measurement": "Titer", "setting": "murine-C retrovirus; run CFI-27: 3,000 psig, 40 C., 30 mins, serum, polybrene, control 65,000", "value": "3,000 cfu/2.3 ml"}, {"measurement": "- log10 Reduction", "setting": "murine-C retrovirus; run CFI-34: 5,000 psig, 41 C., 30 mins, serum", "value": ">3.6"}, {"measurement": "Titer", "setting": "murine-C retrovirus; run CFI-34: 5,000 psig, 41 C., 30 mins, serum, control 20,000, 5 = detection limit", "value": "<5* cfu/2.0 ml"}, {"measurement": "reduction of effectiveness by the presence of protein", "setting": "murine-C retrovirus; serum (CFI-27) compared with culture medium (CFI-18)", "value": "one to two orders of magnitude"}, {"measurement": "- log10 Reduction", "setting": "murine C-type retrovirus; [6]", "value": 2.7}, {"measurement": "Titer", "setting": "murine C-type retrovirus; [6]", "value": 10, "unit": "cfu/2.3 ml"}, {"measurement": "- log10 Reduction", "setting": "murine C-type retrovirus; [7]", "value": 2.0}, {"measurement": "Titer", "setting": "murine C-type retrovirus; [7]", "value": 50, "unit": "cfu/2.3 ml"}, {"measurement": "- log10 Reduction", "setting": "murine C-type retrovirus; run CFI-20: 3,180 psig, 41 C., 121 mins", "value": ">3.0"}, {"measurement": "Titer", "setting": "murine C-type retrovirus; run CFI-20: 3,180 psig, 41 C., 121 mins, 5 = detection limit", "value": "<5* cfu/2.3 ml"}, {"measurement": "effectiveness in inactivating the retrovirus", "setting": "murine C-type retrovirus", "value": "very effective"}]}
{"smiles": "CCO", "note": "[ethanol]", "values": [{"measurement": "impact on the effect of supercritical nitrous oxide", "setting": "murine-C retrovirus; 2 mole % ethanol cosolvent, approximately 3,000 psig, 40° C., 30 minutes, serum", "value": "little or no impact"}, {"measurement": "effect on the titer", "setting": "murine-C retrovirus; control without critical fluid, 40° C., 2 mole % ethanol in the serum", "value": "does not affect the titer"}]}
